Values of other authors in patent US9949922B2, “Silica hydrogel composite” (DELSITECH OY, priority 2013, dated 2018).

Settings: nimodipine value from DrugBank

## O=C1OC2(c3ccc(O)cc3Oc3cc(O)ccc32)c2ccccc21 [Fluorescein]
  Water solubility: 800 µg/mL
